Results published in publication PMC8419995, “In vitro and in vivo efficacy of thiacloprid against Echinococcus multilocularis” (Parasites & Vectors, 2021).

System: T lymphocyte subsets in metacestodes and spleen
Test: T lymphocyte subset analysis and spleen index in infected mice
Format: in vivo
Details: infected BALB/c mice; 6 weeks oral treatment; flow cytometry
Experimental: In vitro-grown metacestode vesicles were pressed through a 500 µm mesh and washed three times with sterile PBS. The parasite tissue was then taken up in an equal volume of sterile PBS. Each mouse was intraperitoneally injected with 200 μl suspension. Seven mice were injected with 200 μl PBS as the control group. Twenty-eight infected mice were randomly distributed into four groups (7 mice/group): the untreated group was not administered any drug; the ABZ group was treated with ABZ orally (100 mg/kg/day); and the Thia15 group and Thia30 group received thiacloprid orally (15 mg/kg/day and 30 mg/kg/day). Treatments of mice started 2 weeks post-infection, and treatments were administered daily for 6 weeks. […] All metacestode tissues were collected, and the total wet weight of metacestodes per mice was determined. Furthermore, the content of cytokines in microcyst fluid was detected by enzyme-linked immunosorbent assay (ELISA). […]
The spleens of mice were removed and then weighed to calculate the spleen index. […] The lymphocytes were incubated with FITC-conjugated anti-CD3 (BioLegend, San Diego, CA, USA), PE-conjugated anti-CD4 (BioLegend), and APC-conjugated anti-CD8 (BioLegend) antibodies, and then analyzed by flow cytometry using a NovoCyte flow cytometer (ACEA/Agilent, Santa Clara, CA, USA).

N#C/N=C1\SCCN1Cc1ccc(Cl)nc1 [thiacloprid] was tested, and the “CD4+ T lymphocytes in the metacestodes and spleen compared with the untreated group” value was “increased” and the “CD8+ T lymphocytes in the metacestodes and spleen compared with the untreated group” value was “decreased”.
